Measurements as given in the supplement of paper PMC10307832.

Legend:
Assay in all cases: relative viability (nuclei count vs DMSO), 5 days (fraction); higher = more cells survive
[1] = compound: CC1=C(C(=O)N2C=CSC2=N1)CCN3CCC(=C(C4=CC=CC=C4)C5=CC=C(C=C5)F)CC3
Outline: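 After an overnight hold at 37 °C, lung cancer cell lines in 1536-well plates were pinned with five library-drug doses (not always all listed), each √10 from the next, on vehicle-anchored plates. The cells stayed 5 days without fresh medium, then a one-step fix, permeabilisation and Hoechst stain preceded 4× imaging and MetaXpress nuclear counts. A plate passed only with control CV under 25% and at least one doubling. Viability is the median, over plates, of treated-well nuclei relative to vehicle-well nuclei.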

[2] = compound: CC1=C(C(=O)N2C=CSC2=N1)CCN3CCC(=C(C4=CC=CC=C4)C5=CC=C(C=C5)F)CC3 + O=C(c1cc(Cc2n[nH]c(=O)c3ccccc23)ccc1F)N1CCN(C(=O)C2CC2)CC1 [Olaparib] (partner 8 µM)
Outline: (§1)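 Relative viability equals treated-well nuclei counts divided by vehicle-well nuclei counts. Counts came from 4× images of lung cancer cell lines grown in 1536-well plates for 5 days after pin-tool dosing on the day after seeding. Dosing used one drug alone or a fixed anchor-drug dose plus five library-drug doses (not always all listed) in √10 steps, and values are medians of duplicate plates.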

[3] = compound: CC1=C(C(=O)N2C=CSC2=N1)CCN3CCC(=C(C4=CC=CC=C4)C5=CC=C(C=C5)F)CC3 + N=C(N)NC(=N)NCCc1ccccc1 [Phenformin] (partner 250 µM)
Outline: as §1

[4] = compound: CC1=C(C(=O)N2C=CSC2=N1)CCN3CCC(=C(C4=CC=CC=C4)C5=CC=C(C=C5)F)CC3 + CC(=O)Nc1cccc(-n2c(=O)n(C3CC3)c(=O)c3c(Nc4ccc(I)cc4F)n(C)c(=O)c(C)c32)c1 [Trametinib] (partner 0.02 µM)
Outline: as §1

Cell Line	relative viability ([1]; 0.08 µM)	relative viability ([1]; 0.253 µM)	relative viability ([1]; 0.8 µM)	relative viability ([1]; 2.53 µM)	relative viability ([1]; 8 µM)	relative viability ([2]; first compound 0.08 µM)	relative viability ([2]; first compound 0.253 µM)	relative viability ([2]; first compound 0.8 µM)	relative viability ([2]; first compound 2.53 µM)	relative viability ([2]; first compound 8 µM)	relative viability ([3]; first compound 0.08 µM)	relative viability ([3]; first compound 0.253 µM)	relative viability ([3]; first compound 0.8 µM)	relative viability ([3]; first compound 2.53 µM)	relative viability ([3]; first compound 8 µM)	relative viability ([4]; first compound 0.08 µM)	relative viability ([4]; first compound 0.253 µM)	relative viability ([4]; first compound 0.8 µM)	relative viability ([4]; first compound 2.53 µM)	relative viability ([4]; first compound 8 µM)
HOP-62	1.01	1.02	0.988	0.946	0.577	0.388	0.461	0.445	0.434	0.352	0.711	0.774	0.678	0.491	0.381	0.34	0.365	0.37	0.422	0.225
PC-14	0.939	1.02	1.06	1.1	0.624	0.209	0.223	0.27	0.251	0.253	0.624	0.558	0.518	0.661	0.296	0.523	0.984	0.927	1.61	0.476
NCI-H2347	0.964	1.07	1.04	1.05	0.775	0.58	0.571	0.616	0.549	0.598	0.299	0.403	0.317	0.421	0.397	0.271	0.267	0.262	0.352	0.309
NCI-H727	0.712	1.03	0.896	1.06	0.687	0.86	0.734	0.667	0.689	0.599	0.593	0.55	0.481	0.464	0.47	0.342	0.365	0.366	0.397	0.39
EMC-BAC-2	1.01	0.798	0.908	1.12	0.796	0.46	0.468	0.468	0.522	0.46	0.536	0.495	0.497	0.526	0.414	1		0.931	0.926	0.858
NCI-H1993	0.972	0.816	0.862	1.03	0.866	1	0.944	1.01	1.3	0.838	0.505	0.411	0.51	0.568	0.536	0.494	0.364	0.501	0.511	0.513
SW 900	0.89	1.02	0.883	1.04	0.595	0.896	0.878	0.841	0.848	0.706	0.474	0.68	0.521	0.568	0.516	0.821	1.18	0.855	0.614	0.497
PC-3 [JPC-3]	0.987	0.939	1.04	1.08	0.839	1.04		1.21	1.31	1.05	0.49	0.451	0.454	0.525	0.495	0.645		0.834	0.822	0.664
HARA	1.07	1.5	1.06	0.961	0.745	0.761	0.779	0.821	0.755	0.774	0.525	0.513	0.54	0.544	0.269	0.982	0.567	0.746	0.368	0.551
NCI-H650	0.853	0.963	0.904	1.1	0.816	0.44	0.363	0.345	0.412	0.352	0.404	0.521	0.421	0.497	0.404	0.997	0.891	0.986	1.07	0.932
NCI-H2023	0.997	0.884	0.991	1.11	0.695	0.563	0.454	0.509	0.607	0.394	0.441	0.312	0.426	0.389	0.251	0.592	0.478	0.588	0.617	0.452
NCI-H2126	0.966	0.991	1.05	1.04	0.914	1.07	0.855	0.975	0.968	0.695	0.518	0.541	0.525	0.555	0.517	0.591	0.514	0.58	0.607	0.466
RERF-LC-KJ	0.932	1.01	0.964	0.989	0.662	0.968	0.819	0.845	0.89	0.706	0.345	0.427	0.414	0.534	0.289	0.833	0.893	0.837	0.794	0.578
NCI-H1793	0.761	0.891	0.912	0.831	0.711	0.536	0.807	0.937	1.08	0.521	0.301	0.379	0.404	0.402	0.241	0.433	0.407	0.443	0.47	0.426
NCI-H1734	0.975	1.08	0.976	0.955	0.62	0.554	0.526	0.624	0.767	0.396	0.419	0.378	0.371	0.405	0.322	0.741	0.598	0.691	0.688	0.512
NCI-H1395	0.953	0.992	0.762	0.992	0.872	0.424	0.43	0.443	0.406	0.434	0.511	0.432	0.435	0.453	0.432	1.05	0.97	0.992	1	0.872

Cell Line	relative viability ([1]; 0.08 µM)	relative viability ([1]; 0.253 µM)	relative viability ([1]; 0.8 µM)	relative viability ([1]; 2.53 µM)	relative viability ([1]; 8 µM)	relative viability ([2]; first compound 0.08 µM)	relative viability ([2]; first compound 0.253 µM)	relative viability ([2]; first compound 0.8 µM)	relative viability ([2]; first compound 2.53 µM)	relative viability ([2]; first compound 8 µM)	relative viability ([3]; first compound 0.08 µM)	relative viability ([3]; first compound 0.253 µM)	relative viability ([3]; first compound 0.8 µM)	relative viability ([3]; first compound 2.53 µM)	relative viability ([3]; first compound 8 µM)	relative viability ([4]; first compound 0.08 µM)	relative viability ([4]; first compound 0.253 µM)	relative viability ([4]; first compound 0.8 µM)	relative viability ([4]; first compound 2.53 µM)	relative viability ([4]; first compound 8 µM)
NCI-H1651	0.823	0.968	0.976	1.01	0.72	0.165	0.176	0.189	0.217	0.183	0.341	0.321	0.352	0.304	0.283	0.783	0.915	0.837	0.866	0.712
LC-2-ad	1.09	0.994	0.94	1.04	0.865	0.87	0.79	0.65	0.875	0.574	0.656	0.656	0.543	0.62	0.566	0.943	0.98	0.938	0.95	0.606
NCI-H460	0.923	0.956	1.06	1.04	0.567	0.441	0.361	0.423	0.409	0.343	0.474	0.562	0.611	0.548	0.113	0.129	0.132	0.129	0.124	0.129
NCI-H2170	0.768	0.9	1.02	1	0.697	0.674	0.538	0.635	0.717	0.394	0.42	0.42	0.37	0.417	0.39	1.21	0.894	0.964	0.792	0.637
H3255	0.802	1.01	1.04	1.01	0.832	0.503	0.63	0.548	0.6	0.504	0.341	0.34	0.352	0.37	0.38	0.611	0.577	0.66	0.613	0.417
NCI-H522	1.15	1.02	0.834	0.863	0.774	0.622	0.732	0.647	0.664	0.513	0.769	0.627	0.677	0.607	0.566	0.758	0.74	0.7	0.758	0.778
NCI-H520	0.981	0.974	1.03	1.05	0.657	0.358	0.342	0.341	0.31	0.306	0.784	0.643	0.836	0.539	0.468	0.712	0.625	0.631	0.778	0.393
NCI-H1437	0.918	1.02	1.02	1.09	0.775	0.658	0.692	0.66	0.692	0.51	0.303	0.362	0.334	0.288	0.308	0.385	0.56	0.588	0.601	0.28
NCI-H358	0.802	0.921	0.978	1.2	0.639	0.654	0.611	0.613	0.774	0.502	0.344	0.361	0.361	0.379	0.243	0.12	0.121	0.127	0.133	0.136
LU99A	1.13	0.99	0.88	0.972	0.89	0.151	0.244	0.234	0.254	0.227	0.777	0.846	0.767	0.841	0.658	0.584	0.522	0.586	0.502	0.353
HCC-78	0.833	1.08	0.943	0.954	0.806	0.663	0.872	0.944	0.921	0.608	0.689	0.76	0.695	0.691	0.531	0.818	0.837	0.941	0.727	0.616
NCI-H647	0.996	0.894	0.877	1.09	0.462	0.489	0.518	0.793	0.481	0.358	0.573	0.644	0.54	0.438	0.348	0.388	0.609	0.541	0.612	0.249
NCI-H1650	0.794	0.982	0.875	0.997	0.642	0.782	0.838	0.862	0.819	0.605	0.494	0.345	0.383	0.58	0.314	0.513	0.532	0.483	0.722	0.412
COR-L 105	0.89	0.928	0.787	0.852	0.845	0.542	0.718	0.633	0.753	0.609	0.484	0.467	0.402	0.499	0.387	0.417	0.459	0.405	0.495	0.43
NCI-H2009	1.06	1.07	0.999	1.05	0.871	0.716	0.706	0.654	0.721	0.581	0.541	0.492	0.493	0.49	0.362	0.36	0.265	0.279	0.287	0.284
NCI-H2405	0.967	0.975	0.99	1.11	0.82	0.941		0.889	0.989	0.79	0.373	0.366	0.399	0.375	0.332	0.711		0.676	0.742	0.464
